Results from US20080199550A1, “Novel Anticancer Agent, Methods for Obtaining the Same and Pharmaceutical Compositions Thereof” (priority 2005, published 2008).
Values after ≈ are worked out from the molar mass of the structure shown.

Tests used:
S-180 cells = assay: Sarcoma bearing mice; type: in vivo, mouse
Experimental: Adult, male age-matched Swiss albino mice (29-34 g) housed in groups of four to five in plastic cages, received laboratory rodent chow and tap water ad libitum 14 days prior to experimentation in a temperature controlled room with a 12-h dark/light cycle. S-180 cells maintained in the peritoneal cavity of male mice were used for testing the antitumour activity. The cell suspension was diluted to 1.18×10^8 cells/ml, and 0.1 ml of the suspension was inoculated intra-peritoneally into the mice. The tumour-bearing mice were treated, 24 hrs after inoculation, by i.p. injections of 10 and 20 mg/kg of HAC-01 (2 mg/ml with vehicle in physiological saline solution) at the dosage of 0.05 and 0.1 ml/10 gm b.wt. of mouse every other day for 14 days (Total 7 injections). The control group was treated with vehicle in 0.9% NaCl. The mice b.wt. was recorded at 0,4,8, 11,16,18,20,22 and 24th day.
All data were presented as mean ±SD. Statistical significance was evaluated by t test. P<0.05 is considered as statistically significant.
White blood cell (WBC) and differential leukocyte counts were measured from freely flowing tail vein blood of normal control, sarcoma control and HAC-01 treated groups.

HL-60 cells = assay: Genomic DNA extraction / DNA fragmentation; type: cell-based, human; settings: 7 ug/ml, 48 h
Experimental: For assessing the extent of damage to the cellular DNA following the HAC-1 treatment, the cells under investigation were seeded in 25 cm^2 tissue culture flasks at a cell density of 1×10^6 cells per flask and incubated for different time points in a humidified atmosphere containing 5% CO2 at 37° C. The cells after incubation with samples at 7 μg/ml for 24, 48 and 72 hours were pelleted, The cell pelleted were washed with the PBS and incubated in a shaking hot water bath at 37 C. for 1-2 hours with lysis buffer for mammalian DNA extraction. The lysate was then treated with 1.5 volumes of Isopropyl alcohol and the DNA pelleted by centrifuging at […] for 20 minutes The DNA was dissolved in Tris EDTA (TE pH 8.00) and was run on 2% agarose and the visualized with the help of a gel documentation system (Pharmacia) and recorded.

[1] = tested on: NMU induced breast tumours; assay: N-nitroso-N-methylurea induced model of breast cancer in rats; type: in vivo, rat; settings: 25 mg/kg po daily 3 weeks then 12.5 mg/kg i.p. twice a week 5 weeks, comparable to tamoxifen
Experimental: A standard protocol for induction of breast cancer in female Sprague-Dawley rats (7 to 8 weeks of age and weight range of 80-100 gms) with a single dose of N-nitroso-N-methylurea (NMU) was used for the study. The rats were obtained from animal facility, R & D center, The Himalaya Drug Company, Bangalore. They were maintained on standard pellet diet (Lipton India Ltd., Mumbai) and water ad libitum. Around 60 rats were selected and NMU was administered intraperitoneally at a dose of 50 mg/kg b.wt. NMU was dissolved in saline and pH adjusted to 4.8. Animals were observed daily to assess general health. […]
Three longest possible diameters were recorded, and tumour volume (cm^3) was calculated using the formula LX W X B.
The variations of the total surface areas of tumors between day 1 and day 57 were analyzed using a two-way ANOVA for repeated measurements. […]

telomerase = biological target: T1, telomerase (Homo sapiens, UniProt O14746); assay: Telo TAGGG Telomerase PCR ELISA; type: cell-based; settings: MCF-7; 6.25 μg/ml; 48 and 72 hours
T1 construct: endogenous in cells; host or cells: MCF-7
Experimental: In the present study the telomerase activity of the cancer cell were assessed following the treatment with the samples with the help of Telomerase PCR ELISA (Roche, Germany). Cells were plated in a 24 well plate (2×10^5 cells per well) in DMEM supplemented with FBS (10%) and incubated for 48 hours and 72 hours in a humidified atmosphere with 95% air and 5% CO2 at 37° C. with (6.25 μg/ml) or with out (Control) the samples. Cells of the positive control group were treated with paclitaxel at 1.75 μg/ml and incubated as above. This experiment was done in human breast cancer cells (MCF-7). The cell pellets were washed with PBS and resuspended in lysis solution (200 μl) and the debris was pelleted and the supernatant was transferred to a fresh tube. The Telo TAGGG Telomerase PCR ELISA (Roche) was carried as per the manufacturer's protocol. The samples were added to a PCR amplification tube containing reaction mixture (Tris Buffer with telomerase substrate, nucleotides, Taq polymersase biotin labeled primer 1 and primer 2 specific to telomere fragment) and nuclease free water and allowed for elongation for 33 cycles in a Thermal Cycler (MJ Research, PTC 100). […] The reaction was stopped with the help of 1N H2SO4 and was read in an ELISA plate reader at a test wavelength of 450 nm and reference wavelength of 690 nm.

MCF-7 [2] = assay: Cell viability (MTT) assay; type: cell-based, human
Experimental: The screening of samples was done in human breast cancer cells (MCF-7, MDA-MB-468, ZR-75-1 and SK-Br-3), human liver carcinoma cells (HepG2), human colon adinocacinoma cells (Colo320 D-M), human acute promylocytic leukemia cells (HL-60), mouse sarcoma cells (Sarcoma 180), mouse melanoma cells (C57/B1/6J). Cells were maintained in DMEM, RPMI 1640(colo320-D-M and HL-60) and Mecoy's medium (SKBr-3) supplemented with 10% Fetal Calf Serum (FCS) and antibiotics (100 IU/ml of penicillin and 100 μg/ml of streptomycin) till they achieved 80% confluence in a humidified atmosphere containing 5% CO2 at 37° C. The cultures were passaged upon confluence on a regular basis. […] Morphological changes in the cells were recorded
It was performed after removal of the culture supernatants; MTT assay was performed to assess the viability of cells. […] The plates were read on a micro plate reader using a reference wavelength of 690 nm and a test wavelength of 540 nm.
For calculation of IC50 value, the data were analyzed by no leaner regression (Curve Fit) analysis using Graph Pad Prism version 4.00. The results of cell proliferation and other parameters were analyzed by one-way ANOVA with Bonferroni's Multiple Comparison Test.

MCF-7 [3] = assay: Cell proliferation assay (trypan blue exclusion); type: cell-based, human
Experimental: (§1) For assaying the inhibitory effects of the samples on cell proliferation, cancer cells were seeded into a 96-well tissue culture plate at a cell density of 5×10^4 cells per well and incubated with plant extract at different concentrations for 24 hours in a humidified atmosphere containing 5% CO2 at 37° C. The viable and dead cell counts were performed as per trypan blue exclusion method and results were recorded.

Colo-320 DM = assay: Cell proliferation assay (trypan blue exclusion); type: cell-based, human
Experimental: as §1

MDA cells = assay: Cell proliferation assay (trypan blue exclusion); type: cell-based, human
Experimental: as §1

cancer cells = assay: Cell proliferation assay, all the cell lines; type: cell-based
Experimental: as §1

MCF-7 cells = assay: Assay for influence of estrogen; type: cell-based, human; settings: with or without estradiol, 24 h
Experimental: The efficacy of HAC-1 was studied to assess the hormone dependent or independent activity on cell proliferation. For this purpose MCF-7 cells were initially seeded in a 24 well plate with DMEM supplemented with 10% FCS and incubated for 24 hours in a humidified atmosphere with 5% CO2 and 95% air at 37° C. The cells were then shifted to charcoal striped medium supplemented with 1% bovine albumin serum (BSA,) with or with out the estradiol and HAC-1 and incubated further for a period of 24 h. After the incubation the cell population in each of the groups was recoded by trypan blue exclusion method.

MCF-7 [4] = assay: DNA integrity assay (acredine orange, fluorescent microscope); type: cell-based, human; settings: end of 48 h of incubation
Experimental: It was observed by direct visualization under fluorescent microscope. The cell pellets were treated with acredine orange (t 1:10 dilution) and directly visualized under fluorescent microscope under UV spectrum and the changes in the DNA were documented.

T1 sequence (O14746 whole entry): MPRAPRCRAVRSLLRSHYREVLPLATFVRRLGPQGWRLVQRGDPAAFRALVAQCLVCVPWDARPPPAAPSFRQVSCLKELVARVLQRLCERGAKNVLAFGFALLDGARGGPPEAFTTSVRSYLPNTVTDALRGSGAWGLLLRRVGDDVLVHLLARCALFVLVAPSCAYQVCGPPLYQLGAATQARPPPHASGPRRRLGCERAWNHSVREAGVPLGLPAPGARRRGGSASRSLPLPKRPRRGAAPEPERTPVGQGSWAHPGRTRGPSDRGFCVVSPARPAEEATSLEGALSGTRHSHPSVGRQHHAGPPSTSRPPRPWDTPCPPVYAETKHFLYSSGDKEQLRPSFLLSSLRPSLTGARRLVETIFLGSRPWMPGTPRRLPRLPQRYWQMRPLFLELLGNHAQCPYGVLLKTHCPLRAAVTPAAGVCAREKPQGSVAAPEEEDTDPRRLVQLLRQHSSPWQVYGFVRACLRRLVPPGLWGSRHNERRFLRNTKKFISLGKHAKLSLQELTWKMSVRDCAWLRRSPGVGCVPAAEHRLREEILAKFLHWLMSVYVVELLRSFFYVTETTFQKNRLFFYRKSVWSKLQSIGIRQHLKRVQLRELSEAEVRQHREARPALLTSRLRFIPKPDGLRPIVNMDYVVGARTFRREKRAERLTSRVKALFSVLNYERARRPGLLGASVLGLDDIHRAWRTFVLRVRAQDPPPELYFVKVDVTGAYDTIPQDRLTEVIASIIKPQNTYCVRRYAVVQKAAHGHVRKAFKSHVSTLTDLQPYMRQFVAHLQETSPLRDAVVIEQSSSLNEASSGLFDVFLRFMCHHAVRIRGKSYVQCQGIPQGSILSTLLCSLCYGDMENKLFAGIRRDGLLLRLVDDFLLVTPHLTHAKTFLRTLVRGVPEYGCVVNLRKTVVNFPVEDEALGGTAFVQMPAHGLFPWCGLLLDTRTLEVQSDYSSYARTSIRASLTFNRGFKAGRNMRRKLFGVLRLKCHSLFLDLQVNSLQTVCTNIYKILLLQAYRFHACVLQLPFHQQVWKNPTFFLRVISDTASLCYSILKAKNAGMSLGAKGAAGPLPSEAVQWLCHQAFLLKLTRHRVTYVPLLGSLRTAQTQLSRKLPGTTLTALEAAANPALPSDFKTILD

| SMILES | differential count of WBC (neutrophils, lymphocytes) (S-180 cells; sarcoma bearing mice, 20 mg/kg, i.p.) | weight gain (S-180 cells; tumour bearing mice, i.p. 10 and 20 mg/kg every other day for 14 days) | apoptosis (DNA pattern) (HL-60 cells) | tumor volume [1] | telomerase activity compared to control (telomerase) | IC50 (MCF-7 [2]) [mg/L] | effective concentration to induce 50% inhibition of proliferation (MCF-7 [3]) [µg/mL] | effective concentration to induce 50% inhibition of proliferation (Colo-320 DM) [µg/mL] | effective concentration to induce 50% inhibition of proliferation (MDA cells) [µg/mL] | cell proliferation compared to control (cancer cells; all the cell lines, p<0.001 and p<0.01) | influence of estrogen on drug activity (MCF-7 cells) | cells found apoptosed completely (MCF-7 [4]) | growth inhibition (cancer cells; at 1.75 μg/ml) |
| --- | --- | --- | --- | --- | --- | --- | --- | --- | --- | --- | --- | --- | --- |
| CC1=C2C3OC(=O)C(C)C3(O)CCC2(C)CCC1 (stereo not shown) [HAC-1, 7-hydroxyeudesm-4-en-6,12-olide] | restore these altered parameters to near normal | significantly reduced the weight gain | induced apoptosis | significantly reduced the tumor volume | inhibition in the telomarase activity | 1.62 (≈ 6.47 µM) | 4 | 2 | 2 | significantly inhibited | drug activity is independent of estrogen | more than 80% | – |
| CC(=O)O[C@H]1C(=O)[C@@]2(C)[C@H]([C@H](OC(=O)c3ccccc3)[C@]3(O)C[C@H](OC(=O)[C@H](O)[C@@H](NC(=O)c4ccccc4)c4ccccc4)C(C)=C1C3(C)C)[C@]1(OC(C)=O)CO[C@@H]1C[C@@H]2O [paclitaxel, reference compound] | – | – | – | – | – | – | – | – | – | – | – | – | marked growth inhibition |
